Results on one compound are retold here after PMC10776879, “In vitro screening of topical formulation excipients for epithelial toxicity in cancerous and non-cancerous cell lines” (EXCLI Journal, 2023).

≈ marks a conversion by molar mass, not a printed value.

The subject of series [1] is primary skin fibroblasts (FB). Nature of the series: MTT cell viability assay. Type of series: cell-based, human. The note with it: Homo sapiens, Skin fibroblast, 24 h exposure, read-out: IC50 (μg/ml) [Mean, Range] FB, MTT. The procedure:
(§1) Cells were seeded into the 96-well cell culture plates in 100 μl of complete culture medium at the initial density of 2x10^4 (cells/ml). Cells were incubated under 5 % CO2 at 37 °C for 24 hours for adhering to the wells and medium was then replaced with 100 μl of fresh medium containing excipient solution at the required final concentration. Each concentration was tested in minimum of 5 replicates and control cells were exposed to the culture medium only.
(§2) After cell incubation for 24 h, the excipient-containing medium was removed, and 100 μl of MTT in PBS (5 mg/ml) diluted 1:10 in medium was then added in the dark. Plates were further incubated for 2-3 h, after which time the medium was removed and the purple formazan product was dissolved by adding 200 μl of DMSO to each well. Plates were then placed in a shaker for 5 min at room temperature and the absorbance of the resulting solutions was measured at 570 nm using a microplate reader (Multiskan™ FC Microplate Photometer). The effect of each treatment was calculated as the percentage of tetrazolium salt reduction by viable cells against the negative control (cells treated with culture medium only).
(§3) To assess the excipients' cytotoxicity, the dose-response effect of each excipient was measured against the cell lines. The cytotoxicity value for each concentration of the excipients was expressed as percentage of viability against the untreated control wells (the optical density of untreated cells was set at 100 % viability) to construct dose-response curves.
All IC50 values were expressed as µg/ml. The percentage viability was calculated as follows: […]

Series [2] has as its system D24 human melanoma cells. Briefly: Crystal violet (CV) cell viability assay. The note with it: Homo sapiens, 24 h exposure, read-out: IC50 (μg/ml) [Mean, Range] D24, CV. Type of series: cell-based. As for the experimental part:
(§4) Cells were seeded into the 96-well cell culture plates in 100 μl of complete culture medium at the initial density of 2x10^4 (cells/ml). Cells were incubated under 5 % CO2 at 37 °C for 24 hours for adhering to the wells and medium was then replaced with 100 μl of fresh medium containing excipient solution at the required final concentration. Each concentration was tested in minimum of 5 replicates and control cells were exposed to the culture medium only. Fixed cells were stained with crystal violet dye solution to screen cell viability under treatment conditions. Cells are fixed by 4 % (v/v) paraformaldehyde in PBS for 10 minutes. Crystal violet assay of 0.05 % (v/v) is prepared by 1:4 dilution of the crystal violet stock solution (v/v) in 4 % (v/v) paraformaldehyde. The fixed cells were washed twice with PBS and covered with 250 µl crystal violet working solution. The plates were placed on a bench rocker with medium frequency (20 oscillations per minute) at room temperature for 20 minutes. The plates were emptied and washed under indirect stream of tap water for three times and inverted on filter paper. The plates were taped gently on the paper to remove any remaining liquid and air dried with no lid for minimum of 2 hr at room temperature. After the plates were photographed, blue dye was dissolved in DMSO and the optical density of each well was measured at 570 nm (OD570) with a plate reader (Multiskan™ FC Microplate Photometer). The effect of each treatment was calculated as the percentage of crystal viable staining of surviving attached cells, against the negative control (cells treated with culture medium only). To assess the excipients' cytotoxicity, the dose-response effect of each excipient was measured against the cell lines. The cytotoxicity value for each concentration of the excipients was expressed as percentage of viability against the untreated control wells (the optical density of untreated cells was set at 100 % viability) to construct dose-response curves. […] All IC50 values were expressed as µg/ml. The percentage viability was calculated as follows: […]

Series [3] has as its system HaCaT human keratinocytes. Nature of the series: Crystal violet (CV) cell viability assay. Type of series: cell-based. The note with it: Homo sapiens, 24 h exposure, read-out: IC50 (μg/ml) [Mean, Range] HaCaT, CV. As for the experimental part: as §4
For series [4], the system named is WM1366 human melanoma cells. Nature of the series: Crystal violet (CV) cell viability assay. Type of series: cell-based. The note with it: Homo sapiens, 24 h exposure, read-out: IC50 (μg/ml) [Mean, Range] WM1366, CV. As for the experimental part: as §4
For series [5], the system named is WM164 human melanoma cells. Briefly: Crystal violet (CV) cell viability assay. Type of series: cell-based. The note with it: Homo sapiens, 24 h exposure, read-out: IC50 (μg/ml) [Mean, Range] WM164, CV. As for the experimental part:
as §4

Series [6] relates to human cell lines (WM164, WM1366, D24, HaCaT, FB). Briefly: MTT and CV cytotoxicity, statements over all tested cell lines. Type of series: cell-based. The procedure: as §1, §2
Fixed cells were stained with crystal violet dye solution to screen cell viability under treatment conditions. Cells are fixed by 4 % (v/v) paraformaldehyde in PBS for 10 minutes. Crystal violet assay of 0.05 % (v/v) is prepared by 1:4 dilution of the crystal violet stock solution (v/v) in 4 % (v/v) paraformaldehyde. The fixed cells were washed twice with PBS and covered with 250 µl crystal violet working solution. The plates were placed on a bench rocker with medium frequency (20 oscillations per minute) at room temperature for 20 minutes. The plates were emptied and washed under indirect stream of tap water for three times and inverted on filter paper. The plates were taped gently on the paper to remove any remaining liquid and air dried with no lid for minimum of 2 hr at room temperature. After the plates were photographed, blue dye was dissolved in DMSO and the optical density of each well was measured at 570 nm (OD570) with a plate reader (Multiskan™ FC Microplate Photometer). The effect of each treatment was calculated as the percentage of crystal viable staining of surviving attached cells, against the negative control (cells treated with culture medium only).
as §3
The cytotoxicity of the excipients was expressed in terms of an IC50 values (concentration causing 50 % death of the cell population) (Goldberg and Frazier, 1989[37]). […] All IC50 values were expressed as µg/ml. The percentage viability was calculated as follows: […]

The test system of series [7] is human cervical cancer (HeLa) cells. Also noted: method as in Ujhelyi et al., 2012[89], 2015[90]. The note with it: HeLa cell line; ref Ujhelyi et al., 2012[89], 2015[90]; cited from earlier work.

As for `CCOCCOCCO` [Transcutol®, diethylene glycol monoethyl ether], the IC50 in series [1] is 5.54 µg/mL (≈ 41.3 µM); in series [2] it was 5.01 µg/mL (≈ 37.3 µM); in series [3], 2.91 µg/mL (≈ 21.7 µM); in series [4], 3.55 µg/mL (≈ 26.5 µM); in series [5], 2.03 µg/mL (≈ 15.1 µM); in series [6] (Homo sapiens, over the tested cell lines, this study, read-out: IC50), 2 to 5.5 µg/mL (≈ 14.9 to 41 µM). This compound also registered an Irritancy ranking in series [6] (rank by MTT and CV IC50 over all cell lines, 1 = most cytotoxic) of 4. Also, the “IC50, MTT endpoint” value in series [7] was 34 µg/mL (≈ 253 µM).
